Among the data in patent US20100303758A1, “Novel Glucocorticoid Receptor Agonists” (priority 2009, published 2010) are IC50 and EC50 values, retold here.

What all share (format): cell-based
For experiment [1], the system named is tumour necrosis factor-α (TNF-α) release from lipopolysaccharide (LPS) stimulated isolated human peripheral mononuclear cells (PBMC). The experiment is described as follows: Inhibition of TNF-α release from LPS stimulated isolated human PBMC. As to conditions: LPS stimulated human PBMC; 1 h pre-incubation, 18 hours after LPS; TNF-α by ELISA. The procedure, abridged: (§1)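 Human PBMC from EDTA blood of healthy donors, at 1×10^6 lymphocytes/ml in HBSS/HEPES/BSA buffer, were preincubated with compound (1% DMSO final) for 1 h at 37° C, then stimulated with LPS (added as 100 ng/ml solution) for 18 hours. Supernatant TNF-α was measured by ELISA, and IC50 was derived from dose-response curves.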

In experiment [2] the target is T1, human GR (Homo sapiens, UniProt P04150).
T1 construct: SW1353 naturally expresses human GR; endogenous in cells; host or cells: human chondrosarcoma cell-line SW1353 stably transfected with an MMTV-luciferase reporter construct
T1 sequence (P04150 1-777): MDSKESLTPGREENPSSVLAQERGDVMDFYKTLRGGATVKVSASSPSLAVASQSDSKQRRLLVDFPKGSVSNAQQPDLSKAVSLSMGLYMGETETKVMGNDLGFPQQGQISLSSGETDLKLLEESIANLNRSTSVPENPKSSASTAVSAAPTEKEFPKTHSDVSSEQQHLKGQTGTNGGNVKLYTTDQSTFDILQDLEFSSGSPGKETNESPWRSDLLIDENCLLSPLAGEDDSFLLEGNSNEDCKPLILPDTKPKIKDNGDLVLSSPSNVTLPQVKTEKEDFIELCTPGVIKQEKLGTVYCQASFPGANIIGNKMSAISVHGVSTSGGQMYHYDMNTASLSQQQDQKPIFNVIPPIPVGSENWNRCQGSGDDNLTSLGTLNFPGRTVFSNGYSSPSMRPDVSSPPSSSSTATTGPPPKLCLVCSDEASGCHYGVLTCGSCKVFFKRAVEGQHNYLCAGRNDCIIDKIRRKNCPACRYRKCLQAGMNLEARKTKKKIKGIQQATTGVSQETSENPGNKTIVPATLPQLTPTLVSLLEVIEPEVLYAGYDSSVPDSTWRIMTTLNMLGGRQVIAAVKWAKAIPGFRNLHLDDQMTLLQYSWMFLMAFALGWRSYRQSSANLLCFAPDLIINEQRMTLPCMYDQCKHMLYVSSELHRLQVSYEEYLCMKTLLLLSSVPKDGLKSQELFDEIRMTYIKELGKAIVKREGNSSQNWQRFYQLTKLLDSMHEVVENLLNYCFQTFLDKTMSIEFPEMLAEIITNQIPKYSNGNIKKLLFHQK
The experiment is described as follows: GR agonist potency, MMTV-luciferase reporter in SW1353 cells. The settings on record: human chondrosarcoma cell-line SW1353 stably transfected with MMTV-luciferase reporter; approx. 18 hours; data as percentage of 1 μM dexamethasone positive control. The essentials: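 SW1353 chondrosarcoma cells stably carrying MMTV-luciferase, endogenous GR, exposed to compound ~18 h at 37 °C. Luminescence expressed as percent of 1 μM dexamethasone response; EC50 estimated from dose-response curves.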
(In a reporter assay the amount or activity of a reporter protein is the signal.)

The nature of experiment [3]: Inhibition of TNF-α release from LPS stimulated isolated human PBMC. As to conditions: Homo sapiens, PBMC, read-out: IC50 (nM) for inhibition of TNF-α release. The procedure, abridged: as §1

pEC50: −log10 of the molar value.

Consider `CC12C=CC(=O)C=C1CCC1C3CCC(OC(=O)c4ccc(Cc5ccccc5)cc4)(C(=O)OCC#N)C3(C)CC(O)C12F` (centres unmarked) [Example 9], for which, in experiment [1], 0.21 nM corresponded to half-maximal inhibition (IC50). Regarding `CC12C=CC(=O)C=C1CCC1C3CCC(OC(=O)c4ccc(Sc5ccc(O)cc5)cc4)(C(=O)OCC#N)C3(C)CC(O)C12F` (stereo not drawn) [Example 18, cyanomethyl (11beta,17alpha)-9-fluoro-11-hydroxy-17-({4-[(4-hydroxyphenyl)thio]benzoyl}oxy)-3-oxoandrosta-1,4-d iene-17-carboxylate], in experiment [2], the pEC50 (as a rule, −log10 of the EC50, conventionally taken in molar units) is 7.46. In addition, the IC50 (as a rule, the point on the concentration scale where inhibition reaches its midpoint) in experiment [1] amounted to 0.138 nM. In experiment [2], `CC12C=CC(=O)C=C1CCC1C3CCC(OC(=O)c4ccc(Oc5ccc(Cl)c(O)c5)cc4)(C(=O)OCC#N)C3(C)CC(O)C12F` (stereo not drawn) [Example 34, cyanomethyl (11beta,17alpha)-17-{[4-(4-chloro-3-hydroxyphenoxy)-benzoyl]oxy}-9-fluoro-11-hydroxy-oxoandrosta-1,4-diene-17-carboxylate] showed a negative logarithm of the EC50 (pEC50) of 7.00. In experiment [1], this compound showed an IC50 of 0.278 nM. In experiment [2], `C[C@@H]1C[C@H]2[C@@H]3C[C@H](F)C4=CC(=O)C=C[C@]4(C)[C@@]3(F)[C@@H](O)C[C@]2(C)[C@@]1(OC(=O)c1ccc(Oc2ccc(O)c(Cl)c2)cc1)C(=O)OCC#N` [Example 45, cyanomethyl(6alpha,11beta,16alpha,17alpha)-17-{[4-(3-chloro-4-hydroxyphenoxy)benzoyl]oxy}-6,9-difluoro-11-hydroxy-16-methyl-3-oxoandrosta-1,4-diene-17-carboxylate] showed a pEC50 of 7.67. The IC50 in experiment [3] was 0.155 nM. For `CSc1ccc(Sc2ccc(C(=O)O[C@]3(C(=O)OCC#N)[C@H](C)C[C@H]4[C@@H]5C[C@H](F)C6=CC(=O)C=C[C@]6(C)[C@@]5(F)[C@@H](O)C[C@@]43C)cc2)cc1` [Example 46, Cyanomethyl (6alpha,11beta,16alpha,17alpha)-6,9-difluoro-11-hydroxy-16-methyl-17-[(4-{[4-(methylthio)phenyl]thio}benzoyl)oxy]-3-oxoandrosta-1,4-diene-17-carboxylate] the same measures were 7.35 and 0.372 nM. On to `CSc1cccc(Oc2ccc(C(=O)O[C@]3(C(=O)OCC#N)[C@H](C)C[C@H]4[C@@H]5C[C@H](F)C6=CC(=O)C=C[C@]6(C)[C@@]5(F)[C@@H](O)C[C@@]43C)cc2)c1` [Example 47, Cyanomethyl (6alpha,11beta,16alpha, 17alpha)-6,9-difluoro-11-hydroxy-16-methyl-17-({4-[3-(methylthio)phenoxy]benzoyl}oxy)-3-oxoandrosta-1,4-diene-17-carboxylate], for which, in experiment [2], the pEC50 is 7.60. The IC50 in experiment [3] came to 0.731 nM.

As for `CSc1ccc(Oc2ccc(C(=O)O[C@]3(C(=O)OCC#N)[C@H](C)C[C@H]4[C@@H]5C[C@H](F)C6=CC(=O)C=C[C@]6(C)[C@@]5(F)[C@@H](O)C[C@@]43C)cc2)cc1` [Example 48, Cyanomethyl (6alpha,11beta,16alpha, 17alpha)-6,9-difluoro-11-hydroxy-16-methyl-17-({4-[4-(methylthio)phenoxy]benzoyl}oxy)-3-oxoandrosta-1,4-diene-17-carboxylate], the pEC50 in experiment [2] was 7.85. The IC50 in experiment [3] amounted to 0.09 nM.

The compound `CSc1cccc(Sc2ccc(C(=O)O[C@]3(C(=O)OCC#N)[C@H](C)C[C@H]4[C@@H]5C[C@H](F)C6=CC(=O)C=C[C@]6(C)[C@@]5(F)[C@@H](O)C[C@@]43C)cc2)c1` [Example 49, Cyanomethyl (6alpha,11beta,16alpha, 17alpha)-6,9-difluoro-11-hydroxy-16-methyl-17-[(4-{[3-(methylthio)phenyl]thio}benzoyl)oxy]-3-oxoandrosta-1,4-diene-17-carboxylate] gave a pEC50 in experiment [2] of 7.04. Besides, the IC50 in experiment [3] amounted to 0.738 nM. `CSc1ccc(Sc2ccc(C(=O)O[C@]3(C(=O)OCF)[C@H](C)C[C@H]4[C@@H]5C[C@H](F)C6=CC(=O)C=C[C@]6(C)[C@@]5(F)[C@@H](O)C[C@@]43C)cc2)cc1` [Example 50, Fluoromethyl (6alpha,11beta,16alpha, 17alpha)-6,9-difluoro-11-hydroxy-16-methyl-17-[(4-{[4-(methylthio)phenyl]thio}benzoyl)oxy]-3-oxoandrosta-1,4-diene-17-carboxylate] gave a pEC50 in experiment [2] of 7.94. The IC50 in experiment [3] was found to be 0.052 nM.

As for `CSc1cccc(Oc2ccc(C(=O)O[C@]3(C(=O)OCF)[C@H](C)C[C@H]4[C@@H]5C[C@H](F)C6=CC(=O)C=C[C@]6(C)[C@@]5(F)[C@@H](O)C[C@@]43C)cc2)c1` [Example 51, Fluoromethyl (6alpha,11beta,16alpha, 17alpha)-6,9-difluoro-11-hydroxy-16-methyl-17-({4-[3-(methylthio)phenoxy]benzoyl}oxy)-3-oxoandrosta-1,4-diene-17-carboxylate], the pEC50 in experiment [2] is 8.06. Besides, in experiment [3], the IC50 is 0.057 nM.

Take `CSc1ccc(Oc2ccc(C(=O)OC3(C(=O)OCF)C(C)CC4C5CC(F)C6=CC(=O)C=CC6(C)C5(F)C(O)CC43C)cc2)cc1` (stereo not drawn) [Example 52, Fluoromethyl (6alpha,11beta,16alpha, 17alpha)-6,9-difluoro-11-hydroxy-16-methyl-17-({4-[4-(methylthio)phenoxy]benzoyl}oxy)-3-oxoandrosta-1,4-diene-17-carboxylate]: the pEC50 in experiment [2] was 8.22. Further, the IC50 in experiment [1] came to 0.033 nM. In turn, `CSc1cccc(Sc2ccc(C(=O)O[C@]3(C(=O)OCF)[C@H](C)C[C@H]4[C@@H]5C[C@H](F)C6=CC(=O)C=C[C@]6(C)[C@@]5(F)[C@@H](O)C[C@@]43C)cc2)c1` [Example 53] had a pEC50 in experiment [2] of 7.93. Also, the IC50 in experiment [3] amounted to 0.086 nM.
